From the NIST ThermoML archive (doi:10.1016/j.jct.2013.05.051)

Experiment: xn = mol fraction of the nth substance listed
Settings: Liquid, Vibrating tube method

CCCCCCCO [heptan-1-ol] + CCCCCCC
mass density [kg/m3]
Settings	x1 = 0.1493	x1 = 0.3215	x1 = 0.5226	x1 = 0.6698	x1 = 0.8469	x1 = 1
333.15 K, 140000 kPa	–	779.8	804.5	823.2	851.4	864.3
353.15 K, 100 kPa	654.4	676.1	705.8	728.5	762.3	778.1
353.15 K, 1000 kPa	655.7	677.3	706.8	729.4	763.1	778.8
353.15 K, 5000 kPa	661.2	682.2	711.3	733.6	766.7	782.3
353.15 K, 10000 kPa	667.4	687.9	716.4	738.3	771	786.3
353.15 K, 15000 kPa	673.1	693.2	721.3	742.9	775.2	790.2
353.15 K, 20000 kPa	678.4	698.2	725.8	747.1	779	793.9
353.15 K, 25000 kPa	683.2	702.8	730.1	751.1	782.7	797.3
353.15 K, 30000 kPa	687.9	707.1	734.2	755	786.3	800.7
353.15 K, 35000 kPa	692.2	711.1	738	758.6	789.6	804
353.15 K, 40000 kPa	696.2	715	741.6	762	792.8	807.1
353.15 K, 45000 kPa	700.2	718.7	745.1	765.4	795.9	810
353.15 K, 50000 kPa	704	722.4	748.5	768.7	799	813
353.15 K, 55000 kPa	707.5	725.7	751.7	771.8	801.9	815.8
353.15 K, 60000 kPa	711	729	754.9	774.8	804.7	818.6
353.15 K, 65000 kPa	714.3	732.2	757.9	777.7	807.5	821.2
353.15 K, 70000 kPa	717.5	735.2	760.9	780.5	810.2	823.8
353.15 K, 80000 kPa	723.5	741	766.4	785.9	815.2	828.7
353.15 K, 90000 kPa	729.1	746.5	771.7	791.1	820.1	833.5
353.15 K, 100000 kPa	734.4	751.6	776.7	795.9	824.8	837.9
353.15 K, 110000 kPa	739.6	756.6	781.5	800.6	829.3	842.3
353.15 K, 120000 kPa	744.3	761.2	786	804.9	833.4	846.4
353.15 K, 130000 kPa	748.8	765.6	790.2	809	837.5	850.3
353.15 K, 140000 kPa	753.2	769.9	794.6	813.2	841.4	854.3
373.15 K, 100 kPa	–	–	–	–	–	761.9
373.15 K, 1000 kPa	636.8	658.8	688.9	712.2	746.6	762.8
373.15 K, 5000 kPa	643.2	664.6	694.1	716.9	750.7	766.6
373.15 K, 10000 kPa	650.5	671.2	700	722.4	755.5	771.1
373.15 K, 15000 kPa	656.9	677.2	705.5	727.5	760.2	775.5
373.15 K, 20000 kPa	662.9	682.7	710.6	732.2	764.4	779.5
373.15 K, 25000 kPa	668.4	687.9	715.4	736.7	768.6	783.4
373.15 K, 30000 kPa	673.6	692.7	719.9	740.9	772.4	787.1
373.15 K, 35000 kPa	678.4	697.2	724.1	744.9	776	790.6
373.15 K, 40000 kPa	682.8	701.4	728.1	748.7	779.7	794
373.15 K, 45000 kPa	687.2	705.6	732	752.4	783	797.2
373.15 K, 50000 kPa	691.2	709.3	735.5	755.9	786.3	800.3
373.15 K, 55000 kPa	695.1	713	739.1	759.2	789.4	803.4
373.15 K, 60000 kPa	698.8	716.6	742.4	762.4	792.4	806.3
373.15 K, 65000 kPa	702.3	720.1	745.7	765.5	795.5	809.2
373.15 K, 70000 kPa	705.7	723.2	748.8	768.5	798.2	811.9
373.15 K, 80000 kPa	712.2	729.5	754.8	774.4	803.7	817.2
373.15 K, 90000 kPa	718.3	735.4	760.4	779.8	808.9	822.3
373.15 K, 100000 kPa	723.8	740.9	765.7	784.9	813.8	827
373.15 K, 110000 kPa	729.2	746.1	770.7	789.8	818.5	831.6
373.15 K, 120000 kPa	734.3	751	775.5	794.4	822.9	835.9
373.15 K, 130000 kPa	739.1	755.7	780.1	798.9	827.3	840.2
373.15 K, 140000 kPa	743.7	760.2	784.5	803.1	831.4	844.1
393.15 K, 100 kPa	–	–	–	–	–	744.9
393.15 K, 1000 kPa	617.4	639.3	670.1	693.9	729.1	745.8
393.15 K, 5000 kPa	625	646.2	676.1	699.4	733.9	750.2
393.15 K, 10000 kPa	633.5	653.8	683	705.6	739.3	755.3
393.15 K, 15000 kPa	640.9	660.7	689.2	711.4	744.5	760.1
393.15 K, 20000 kPa	647.6	666.9	694.9	716.6	749.2	764.6
393.15 K, 25000 kPa	653.8	672.7	700.2	721.6	753.7	768.8
393.15 K, 30000 kPa	659.5	678	705.2	726.3	758	772.9
393.15 K, 35000 kPa	664.8	683.1	709.8	730.6	762.1	776.8
393.15 K, 40000 kPa	669.7	687.7	714.2	734.8	765.9	780.4
393.15 K, 45000 kPa	674.3	692.1	718.3	738.8	769.6	783.9
393.15 K, 50000 kPa	678.7	696.3	722.3	742.6	773.1	787.3
393.15 K, 55000 kPa	683	700.4	726.2	746.3	776.6	790.7
393.15 K, 60000 kPa	687	704.1	729.8	749.7	779.8	793.8
393.15 K, 65000 kPa	690.7	707.8	733.2	753.1	782.9	796.8
393.15 K, 70000 kPa	694.4	711.4	736.7	756.4	786.1	799.8
393.15 K, 80000 kPa	701.3	718.1	743.1	762.5	791.9	805.5
393.15 K, 90000 kPa	707.8	724.3	749.2	768.3	797.5	810.9
393.15 K, 100000 kPa	713.7	730.1	754.7	773.8	802.6	815.9
393.15 K, 110000 kPa	719.4	735.7	760.1	778.9	807.7	820.8
393.15 K, 120000 kPa	724.6	740.8	765	783.8	812.3	825.3
393.15 K, 130000 kPa	729.7	745.7	769.8	788.5	816.8	829.8
393.15 K, 140000 kPa	734.6	750.5	774.5	793	821.3	834
